Inhibition data for 1 molecule are collected here from PMC6934184, “Selective DNA-PKcs inhibition extends the therapeutic index of localized radiotherapy and chemotherapy” (The Journal of Clinical Investigation, 2019).

This assay has as its target T1, DDR1 (Homo sapiens, UniProt Q08345).
T1 construct: purchased Thermo Fisher Scientific (Life Technologies) SelectScreen
Nature of the assay: SelectScreen LanthaScreen. The following applies: read-out: % displacement. The format is binding. In short, it runs like this: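 Percent values come from Thermo SelectScreen profiling of NU5455, combining activity and binding assays. CSF1R was run in Z'LYTE format at Km app ATP, and CAMK1 in Adapta format with ATP listed at 10.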
(In general: In TR-FRET formats the signal depends on donor and acceptor labels being close together.)

T1 sequence (Q08345 19-913): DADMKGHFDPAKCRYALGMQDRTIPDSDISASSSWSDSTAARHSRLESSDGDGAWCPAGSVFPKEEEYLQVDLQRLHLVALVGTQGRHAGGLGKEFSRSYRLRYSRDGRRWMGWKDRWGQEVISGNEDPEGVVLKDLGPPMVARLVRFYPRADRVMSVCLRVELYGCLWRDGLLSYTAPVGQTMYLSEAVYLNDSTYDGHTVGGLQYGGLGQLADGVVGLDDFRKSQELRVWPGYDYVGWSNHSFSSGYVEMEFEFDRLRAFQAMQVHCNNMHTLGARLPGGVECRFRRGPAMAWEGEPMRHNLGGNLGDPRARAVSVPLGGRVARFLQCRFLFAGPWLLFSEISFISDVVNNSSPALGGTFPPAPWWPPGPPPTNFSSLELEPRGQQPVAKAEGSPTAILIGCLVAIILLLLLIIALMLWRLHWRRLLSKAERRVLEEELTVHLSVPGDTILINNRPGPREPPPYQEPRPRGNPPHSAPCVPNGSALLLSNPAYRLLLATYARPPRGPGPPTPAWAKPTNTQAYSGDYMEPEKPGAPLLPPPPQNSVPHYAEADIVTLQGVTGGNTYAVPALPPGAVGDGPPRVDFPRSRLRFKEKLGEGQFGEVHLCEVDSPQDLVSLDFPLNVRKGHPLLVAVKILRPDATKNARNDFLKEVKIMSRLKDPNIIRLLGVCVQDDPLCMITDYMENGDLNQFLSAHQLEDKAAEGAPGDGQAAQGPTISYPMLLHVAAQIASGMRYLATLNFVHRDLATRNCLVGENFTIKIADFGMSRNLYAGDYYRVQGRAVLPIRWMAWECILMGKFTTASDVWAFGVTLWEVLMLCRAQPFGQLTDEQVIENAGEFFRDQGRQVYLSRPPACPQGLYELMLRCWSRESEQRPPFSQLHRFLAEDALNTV

On to `CN(C(=O)CN1CCOCC1)c1ccc2sc3c(-c4cccc5c(=O)cc(N6CC7CCC(C6)O7)oc45)cccc3c2c1` [NU5455], for which the inhibition at 1 µM was -1.8%.
